Source: patent US10189838B2, “Aza-oxo-indoles for the treatment and prophylaxis of respiratory syncytial virus infection” (Hoffmann-La Roche Inc., priority 2013, dated 2019)

System: RSV Long strain
Assay: Viral cytopathic effect (CPE) assay, RSV Long strain
Assay type: cell-based, Respiratory Syncytial Virus
Conditions: human respiratory syncytial virus, 144 h, cell viability after 6 days (Cell Counting kit-8)
Protocol: EC50: the concentration of a compound where 50% of its maximal protection effect against viral induced CPE is observed
LongStrain: an A subtype RSV strain obtained from ATCC with catalog number VR-26
To measure anti-RSV activity of compounds, 96-well plates are seeded with 6×10^3 cells per well in Dulbecco's modified Eagle's medium (DMEM) containing 10% fetal bovine serum (FBS). Cells are infected the next day with sufficient RSV Long strain (ATCC) to produce an approximately 80-90% cytopathic effect after 6 days, in the presence of serial half-log diluted compound in a total volume of […] per well. The viability of cells is assessed after 6 days using Cell Counting kit-8 (Dojindo Molecular Technologies). The absorbance at 450 nm and referenced at 630 nm is measured to determine 50% effective concentration (EC50)

SMILES | EC50 [nM]
CS(=O)(=O)CCn1c(CN2C(=O)C3(CC3)c3ccncc32)cc2ccccc21 [Example 1-1, 1′-({1-[2-(Methylsulfonyl)ethyl]-1H-indol-2-yl}methyl)spiro[cyclopropane-1,3′-pyrrolo[2,3-c]pyridin]-2′(1′H)-one] | 220
COc1ccc2c(c1)cc(CN1C(=O)C3(CC3)c3ccncc31)n2CCS(C)(=O)=O [Example 1-2, 1′-({5-Methoxy-1-[2-(methylsulfonyl)ethyl]-1H-indol-2-yl}methyl)spiro[cyclopropane-1,3′-pyrrolo[2,3-c]pyridin]-2′(1′H)-one] | 74
CS(=O)(=O)CCn1c(CN2C(=O)C3(CC3)c3ccncc32)cc2cc(C#N)ccc21 [Example 1-3, 1-[2-(Methylsulfonyl)ethyl]-2-[(2′-oxospiro[cyclopropane-1,3′-pyrrolo[2,3-c]pyridin]-1′(2′H)-yl)methyl]-1H-indole-5-carbonitrile] | 938
CS(=O)(=O)CCn1c(CN2C(=O)C3(CC3)c3ccncc32)cc2cc(F)ccc21 [Example 1-4, 1′-({5-Fluoro-1-[2-(methylsulfonyl)ethyl]-1H-indol-2-yl}methyl)spiro[cyclopropane-1,3′-pyrrolo[2,3-c]pyridin]-2′(1′H)-one] | 189
CS(=O)(=O)CCn1c(CN2C(=O)C3(CC3)c3ccncc32)cc2cc(Br)ccc21 [Example 1-5, 1′-({5-Bromo-1-[2-(methylsulfonyl)ethyl]-1H-indol-2-yl}methyl)spiro[cyclopropane-1,3′-pyrrolo[2,3-c]pyridin]-2′(1′H)-one] | 14
CS(=O)(=O)CCn1c(CN2C(=O)C3(CC3)c3ccncc32)cc2c(Cl)cccc21 [Example 1-6, 1′-({4-Chloro-1-[2-(methylsulfonyl)ethyl]-1H-indol-2-yl}methyl)spiro[cyclopropane-1,3′-pyrrolo[2,3-c]pyridin]-2′(1′H)-one] | 1670
CS(=O)(=O)CCn1c(CN2C(=O)C3(CC3)c3ccncc32)cc2cccc(Cl)c21 [Example 1-7, 1′-({7-Chloro-1-[2-(methylsulfonyl)ethyl]-1H-indol-2-yl}methyl)spiro[cyclopropane-1,3′-pyrrolo[2,3-c]pyridin]-2′(1′H)-one] | 164
CCc1ccc2c(c1)cc(CN1C(=O)C3(CC3)c3ccncc31)n2CCS(C)(=O)=O [Example 1-8, 1′-({5-Ethyl-1-[2-(methylsulfonyl)ethyl]-1H-indol-2-yl}methyl)spiro[cyclopropane-1,3′-pyrrolo[2,3-c]pyridin]-2′(1′H)-one] | 220
CS(=O)(=O)CCn1c(CN2C(=O)C3(CC3)c3ccncc32)cc2cc(F)cc(F)c21 [Example 1-9, 1′-({5,7-Difluoro-1-[2-(methylsulfonyl)ethyl]-1H-indol-2-yl}methyl)spiro[cyclopropane-1,3′-pyrrolo[2,3-c]pyridin]-2′(1′H)-one] | 24
CS(=O)(=O)CCn1c(CN2C(=O)C3(CC3)c3ccncc32)cc2cc(C(F)(F)F)ccc21 [Example 1-10, 1′-({1-[2-(Methylsulfonyl)ethyl]-5-(trifluoromethyl)-1H-indol-2-yl}methyl)spiro[cyclopropane-1,3′-pyrrolo[2,3-c]pyridin]-2′(1′H)-one] | 557
CS(=O)(=O)CCn1c(CN2C(=O)C3(CC3)c3ccncc32)cc2cc(F)c(F)cc21 [Example 1-11, 1′-({5,6-Difluoro-1-[2-(methylsulfonyl)ethyl]-1H-indol-2-yl}methyl)spiro[cyclopropane-1,3′-pyrrolo[2,3-c]pyridin]-2′(1′H)-one] | 935
CS(=O)(=O)CCn1c(CN2C(=O)C3(CC3)c3ccncc32)cc2cc(Cl)cc(F)c21 [Example 1-12, 1′-({5-Chloro-7-fluoro-1-[2-(methylsulfonyl)ethyl]-1H-indol-2-yl}methyl)spiro[cyclopropane-1,3′-pyrrolo[2,3-c]pyridin]-2′(1′H)-one] | 3.4
Cc1ccc2c(c1)cc(CN1C(=O)C3(CC3)c3ccncc31)n2CCS(C)(=O)=O [Example 1-13, 1′-({5-Methyl-1-[2-(methylsulfonyl)ethyl]-1H-indol-2-yl}methyl)spiro[cyclopropane-1,3′-pyrrolo[2,3-c]pyridin]-2′(1′H)-one] | 9
CS(=O)(=O)CCn1c(CN2C(=O)C3(CC3)c3ccncc32)cc2cnccc21 [Example 1-14, 1′-({1-[2-(Methylsulfonyl)ethyl]-1H-pyrrolo[3,2-c]pyridin-2-yl}methyl)spiro[cyclopropane-1,3′-pyrrolo[2,3-c]pyridin]-2′(1′H)-one] | 77.8
CCS(=O)(=O)CCn1c(CN2C(=O)C3(CC3)c3ccncc32)cc2cc(Cl)ccc21 [Example 2-1, 1′-({5-Chloro-1-[2-(ethylsulfonyl)ethyl]-1H-indol-2-yl}methyl)spiro[cyclopropane-1,3′-pyrrolo[2,3-c]pyridin]-2′(1′H)-one] | 7.67
CCS(=O)(=O)CCn1c(CN2C(=O)C3(CC3)c3ccncc32)cc2cc(Cl)cnc21 [Example 2-2, 1′-({5-Chloro-1-[2-(ethylsulfonyl)ethyl]-1H-pyrrolo[2,3-b]pyridin-2-yl}methyl)spiro[cyclopropane-1,3′-pyrrolo[2,3-c]pyridin]-2′(1′H)-one] | 19
CCS(=O)(=O)CCn1c(CN2C(=O)C3(CC3)c3cccnc32)cc2cc(Cl)ccc21 [Example 2-3, 1′-({5-Chloro-1-[2-(ethylsulfonyl)ethyl]-1H-indol-2-yl}methyl)spiro[cyclopropane-1,3′-pyrrolo[2,3-b]pyridin]-2′(1′H)-one] | 247
CS(=O)(=O)CCn1c(CN2C(=O)C3(CCC3)c3ccncc32)cc2cc(Cl)cnc21 [Example 2-4, 1′-({5-Chloro-1-[2-(methylsulfonyl)ethyl]-1H-pyrrolo[2,3-b]pyridin-2-yl}methyl)spiro[cyclobutane-1,3′-pyrrolo[2,3-c]pyridin]-2′(1′H)-one] | 28.8
CS(=O)(=O)CCn1c(CN2C(=O)C3(CC3)c3cccnc32)cc2cc(Cl)ccc21 [Example 2-5, 1′-({5-Chloro-1-[2-(methylsulfonyl)ethyl]-1H-indol-2-yl}methyl)spiro[cyclopropane-1,3′-pyrrolo[2,3-b]pyridin]-2′(1′H)-one] | 169
CS(=O)(=O)CCn1c(CN2C(=O)C3(CC3)c3cc(F)ccc32)cc2cc(Cl)cnc21 [Example 2-7, 1′-({5-Chloro-1-[2-(methylsulfonyl)ethyl]-1H-pyrrolo[2,3-b]pyridin-2-yl}methyl)-5′-fluorospiro[cyclopropane-1,3′-indol]-2′(1′H)-one] | 750
CS(=O)(=O)CCn1c(CN2C(=O)C3(CCCC3)c3ccncc32)cc2cc(Cl)cnc21 [Example 2-8, 1′-({5-Chloro-1-[2-(methylsulfonyl)ethyl]-1H-pyrrolo[2,3-b]pyridin-2-yl}methyl)spiro[cyclopentane-1,3′-pyrrolo[2,3-c]pyridin]-2′(1′H)-one] | 919
CS(=O)(=O)CCn1c(CN2C(=O)C3(CC3)c3ccncc32)cc2nc(Cl)ccc21 [Example 2-9, 1′-({5-Chloro-1-[2-(methylsulfonyl)ethyl]-1H-pyrrolo[3,2-b]pyridin-2-yl}methyl)spiro[cyclopropane-1,3′-pyrrolo[2,3-c]pyridin]-2′(1′H)-one] | 63
CS(=O)(=O)CCn1c(CN2C(=O)C3(CC3)c3cnccc32)cc2cc(Cl)ccc21 [Example 3-1, 1′-({5-Chloro-1-[2-(methylsulfonyl)ethyl]-1H-indol-2-yl}methyl)spiro[cyclopropane-1,3′-pyrrolo[3,2-c]pyridin]-2′(1′H)-one] | 201
